For 23 compounds, IC50 results are on record in patent US8148391B2 (Cephalon, Inc., priority 2006, dated 2012).

Like-named read-outs stand apart in the source and are kept apart here.

The target in assay [1] is T1, baculovirus-expressed ALK (Homo sapiens, UniProt Q9UM73).
T1 construct: host or cells: baculovirus expression system
The assay is described as follows: ALK Kinase Assay (ELISA-type, time-resolved fluorescence). The format is biochemical. The procedure, abridged: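 Plates coated with phospholipase C-γ substrate (10 μg/mL in TBS); reaction started with 30 ng/ml ALK and run 15 min at 37° C. Phosphorylated substrate detected with Eu-N1-labeled PT66 antibody. IC50 from sigmoidal variable-slope fit of percent inhibition vs log concentration.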
In general terms: ELISA stands for enzyme-linked immunosorbent assay.

Assay [2] has as its target T2, c-Met (cytoplasmic domain) (Homo sapiens, UniProt P08581).
T2 construct: 10 ng/mL c-Met (cytoplasmic domain, Invitrogen Corporation #PV3143); purchased Invitrogen Corporation PV3143
The assay is described as follows: c-Met Kinase Assay (same methods as for ALK, with modifications). The format is biochemical. In short, it runs like this: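 Plates were coated with phospholipase C-γ substrate (10 μg/mL) in TBS, and the reaction was started with 10 ng/mL c-Met cytoplasmic domain and run 15 min at 37 °C. Phosphoproduct was detected with Eu-N1-labelled PT66 antibody. IC50 came from a variable-slope sigmoidal fit of percent inhibition vs log concentration.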

The mark [3] stands for this setting: ALK kinase inhibition, 1 μM ATP, read-out: ALK Activity.
Setting [4] is: c-Met kinase inhibition, 1 μM ATP, read-out: cMet Activity.
The mark [5] stands for this setting: ALK kinase inhibition, 1 μM ATP (Km level), read-out: ALK Activity.
The mark [6] stands for this setting: c-Met kinase inhibition, 1 μM ATP (Km level), read-out: cMet Activity.
[7] abbreviates: 1 μM ATP (Km level), read-out: ALK Activity (ALK Kinase Inhibition, IC50).
Where [8] appears, read: 1 μM ATP (Km level), read-out: cMet Activity (c-Met Kinase Inhibition, IC50).
Setting [9] is: 1 μM ATP (Km level), 30 ng/ml ALK, 37° C., 15 minutes, read-out: ALK Activity (ALK kinase inhibition, IC50 class).
The mark [10] stands for this setting: 1 μM ATP (Km level), 10 ng/mL c-Met, read-out: cMet Activity (c-Met kinase inhibition, IC50 class).

T1 sequence (Q9UM73 19-1620): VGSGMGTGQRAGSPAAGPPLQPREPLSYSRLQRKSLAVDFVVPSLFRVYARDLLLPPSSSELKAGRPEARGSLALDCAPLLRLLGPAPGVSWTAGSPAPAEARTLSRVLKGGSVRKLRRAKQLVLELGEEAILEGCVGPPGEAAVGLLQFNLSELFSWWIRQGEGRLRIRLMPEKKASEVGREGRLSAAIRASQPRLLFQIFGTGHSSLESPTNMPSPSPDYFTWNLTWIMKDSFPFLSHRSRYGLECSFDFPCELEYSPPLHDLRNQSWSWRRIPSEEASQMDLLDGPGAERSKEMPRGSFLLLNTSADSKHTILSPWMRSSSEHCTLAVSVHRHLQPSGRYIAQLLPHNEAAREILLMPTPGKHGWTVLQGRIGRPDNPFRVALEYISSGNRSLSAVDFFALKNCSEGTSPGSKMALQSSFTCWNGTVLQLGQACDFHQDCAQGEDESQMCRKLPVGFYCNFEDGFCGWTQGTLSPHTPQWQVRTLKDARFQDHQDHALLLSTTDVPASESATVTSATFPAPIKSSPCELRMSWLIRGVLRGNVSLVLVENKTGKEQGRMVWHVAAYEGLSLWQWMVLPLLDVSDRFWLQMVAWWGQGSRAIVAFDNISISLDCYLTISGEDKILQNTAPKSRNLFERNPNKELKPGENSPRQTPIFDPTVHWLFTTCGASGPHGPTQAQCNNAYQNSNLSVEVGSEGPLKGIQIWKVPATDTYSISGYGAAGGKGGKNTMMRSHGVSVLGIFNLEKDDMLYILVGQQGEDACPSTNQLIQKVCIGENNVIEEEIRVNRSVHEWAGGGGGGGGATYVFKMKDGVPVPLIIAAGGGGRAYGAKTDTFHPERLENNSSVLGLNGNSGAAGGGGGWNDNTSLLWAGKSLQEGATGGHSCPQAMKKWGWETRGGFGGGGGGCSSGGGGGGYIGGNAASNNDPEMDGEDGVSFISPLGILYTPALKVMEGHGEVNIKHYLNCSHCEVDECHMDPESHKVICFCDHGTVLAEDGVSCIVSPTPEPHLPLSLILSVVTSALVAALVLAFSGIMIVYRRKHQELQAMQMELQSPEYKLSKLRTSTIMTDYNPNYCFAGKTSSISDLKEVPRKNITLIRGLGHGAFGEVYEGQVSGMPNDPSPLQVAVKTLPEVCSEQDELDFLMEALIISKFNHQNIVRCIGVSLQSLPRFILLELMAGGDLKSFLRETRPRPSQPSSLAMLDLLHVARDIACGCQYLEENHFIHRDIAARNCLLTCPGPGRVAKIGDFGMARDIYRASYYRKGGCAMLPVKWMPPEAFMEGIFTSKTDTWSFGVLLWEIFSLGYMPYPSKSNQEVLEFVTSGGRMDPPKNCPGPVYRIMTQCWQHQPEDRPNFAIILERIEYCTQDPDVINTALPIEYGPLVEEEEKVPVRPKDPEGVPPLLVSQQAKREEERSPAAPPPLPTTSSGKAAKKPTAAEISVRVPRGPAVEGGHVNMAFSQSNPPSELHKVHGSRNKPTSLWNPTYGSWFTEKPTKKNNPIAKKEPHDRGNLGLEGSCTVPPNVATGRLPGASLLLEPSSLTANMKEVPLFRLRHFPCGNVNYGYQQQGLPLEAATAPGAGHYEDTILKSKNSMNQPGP
T2 sequence (P08581 956-1390 limits assumed): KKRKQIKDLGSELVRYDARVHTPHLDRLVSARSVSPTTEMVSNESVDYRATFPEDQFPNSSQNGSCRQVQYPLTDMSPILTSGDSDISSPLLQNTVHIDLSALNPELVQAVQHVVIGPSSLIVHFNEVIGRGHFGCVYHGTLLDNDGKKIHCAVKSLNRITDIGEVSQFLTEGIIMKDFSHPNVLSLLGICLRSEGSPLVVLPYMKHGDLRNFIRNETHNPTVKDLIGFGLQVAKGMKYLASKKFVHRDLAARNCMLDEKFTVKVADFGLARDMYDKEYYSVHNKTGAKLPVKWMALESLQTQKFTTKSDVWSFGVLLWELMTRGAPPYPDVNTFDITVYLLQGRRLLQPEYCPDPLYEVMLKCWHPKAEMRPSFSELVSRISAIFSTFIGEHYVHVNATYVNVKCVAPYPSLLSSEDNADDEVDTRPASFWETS

In the case of `CN(CCC#N)C(=O)c1ccccc1Nc1nc(Nc2ccc3c(c2)CCCC(=O)N3C)ncc1Cl` [Example 1682, 2-[5-Chloro-2-(1-methyl-2-oxo-2,3,4,5-tetrahydro-1H-benzo[b]azepin-7-ylamino)-pyrimidin-4-ylamino]-N-(2-cyano-ethyl)-N-methyl-benzamide], the results for the IC50 in assay [1] (setting [3]) and in assay [2] (setting [4]) were below 100 nM and 100 to 1000 nM, respectively.
Regarding `COCCN1CCc2ccc(Nc3ncc(Cl)c(Nc4ccccc4S(=O)(=O)N4CCC(O)C4)n3)cc2CC1` (stereo not shown) [Example 1492, 1-(2-{5-Chloro-2-[3-(2-methoxy-ethyl)-2,3,4,5-tetrahydro-1H-benzo[d]azepin-7-ylamino]-pyrimidin-4-ylamino}-benzenesulfonyl)-pyrrolidin-3-ol], the IC50 in assay [1] (setting [3]) and in assay [2] (setting [4]) was below 100 nM each time.
As to `CC1(C)CCC(=O)Nc2ccc(Nc3ncc(Cl)c(Nc4ccccc4-c4ncc[nH]4)n3)cc21` [Example 220, 7-{5-Chloro-4-[2-(1H-imidazol-2-yl)-phenylamino]-pyrimidin-2-ylamino}-5,5-dimethyl-1,3,4,5-tetrahydro-benzo[b]azepin-2-one], the IC50 was below 100 nM in assay [1] (setting [5]) and 1000 to 10000 nM in assay [2] (setting [6]).
In the case of `COCCN1CCc2ccc(Nc3ncc(Cl)c(Nc4c(F)cccc4OCC#N)n3)cc2CC1` [Example 931, (2-{5-Chloro-2-[3-(2-methoxy-ethyl)-2,3,4,5-tetrahydro-1H-3-benzazepin-7-ylamino]-pyrimidin-4-ylamino}-3-fluoro-phenoxy)-acetonitrile], the IC50 in assay [1] (setting [7]) and in assay [2] (setting [8]) was below 100 nM in each case.
For `COc1cc2c(cc1Nc1ncc(Cl)c(Nc3ccccc3S(=O)(=O)N(C)C)n1)CCN(CCOP(=O)(O)O)CC2` [Example 1545, Phosphoric acid mono-(2-{7-[5-chloro-4-(2-dimethylsulfamoyl-phenylamino)-pyrimidin-2-ylamino]-8-methoxy-1,2,4,5-tetrahydro-3-benzazepin-3-yl}-ethyl)ester], the figures for the IC50 in assay [1] (setting [3]) and in assay [2] (setting [4]) were below 100 nM and 1000 to 10000 nM, respectively.
With `C#CCNC(=O)c1cccc(F)c1Nc1nc(Nc2ccc3c(c2)N(C(C)=O)CCCO3)ncc1Cl` [Example 1713, 2-[2-(9-Acetyl-6,7,8,9-tetrahydro-5-oxa-9-aza-benzocyclohepten-2-ylamino)-5-chloro-pyrimidin-4-ylamino]-3-fluoro-N-prop-2-ynyl-benzamide], the IC50 in assay [1] (setting [3]) is 100 to 1000 nM; in assay [2] (setting [4]), below 100 nM.
As to “2-[5-Chloro-2-(1,4-dimethyl-5-oxo-2,3,4,5-tetrahydro-1H-benzo[e][1,4]diazepin-8-ylamino)-pyrimidin-4-ylamino]-N-methylbenzamide [Example 416]”, the IC50 in assay [1] (setting [5]) and in assay [2] (setting [6]) was below 100 nM each time.
With `CNC(=O)c1cccc(Cl)c1Nc1nc(Nc2ccc3c(c2)C(C)(C)NC(=O)CC3)ncc1Cl` [Example 1834, 3-Chloro-2-(5-chloro-2-(1,1-dimethyl-3-oxo-2,3,4,5-tetrahydro-1H-benzo[c]azepin-8-ylamino)pyrimidin-4-ylamino)-N-methylbenzamide], the IC50 in assay [1] (setting [3]) and in assay [2] (setting [4]) was below 100 nM each time.
On to `CCN1CCc2ccc(Nc3ncc(Cl)c(NCC(C)(C)NS(C)(=O)=O)n3)cc2CC1` [Example 304, N-{2-[5-Chloro-2-(3-ethyl-2,3,4,5-tetrahydro-1H-benzo[d]azepin-7-ylamino)-pyrimidin-4-ylamino]-1,1-dimethyl-ethyl}-methanesulfonamide], for which the values for the IC50 in assay [1] (setting [5]) and in assay [2] (setting [6]) were 100 to 1000 nM and 1000 to 10000 nM, respectively.
Consider `CNC(=O)c1ccccc1Nc1nc(Nc2ccc3c(c2Br)C2CCC3CN(C(=O)C(F)(F)F)C2)ncc1Cl` (stereo not shown) [Example 297, 2-{2-[3-Bromo-10-(2,2,2-trifluoro-acetyl)-10-aza-tricyclo[6.3.2.0*2,7*]trideca-2,4,6-trien-4-ylamino]-5-chloro-pyrimidin-4-ylamino}-N-methyl-benzamide], for which the IC50 in assay [1] (setting [5]) was 100 to 1000 nM; in assay [2] (setting [6]) it was above 10000 nM.
For `CNC(=O)c1sccc1Nc1nc(Nc2ccc3c(c2)OCCCN3C(=O)OC(C)C)ncc1Cl` [Example 1435, 3-[5-Chloro-4-(2-methylcarbamoyl-thiophen-3-ylamino)-pyrimidin-2-ylamino]-7,8-dihydro-6H-5-oxa-9-aza-benzocycloheptene-9-carboxylic acid isopropyl ester], the IC50 in assay [1] (setting [9]) and in assay [2] (setting [10]) was 100 to 1000 nM each time.
As to `CN1Cc2cc(Nc3ncc(Cl)c(Nc4ccccc4OCC#N)n3)ccc2CCC1=O` [Example 1810, {2-[5-Chloro-2-(2-methyl-3-oxo-2,3,4,5-tetrahydro-1H-benzo[c]azepin-8-ylamino)-pyrimidin-4-ylamino]-phenoxy}-acetonitrile], the IC50 in assay [1] (setting [3]) and in assay [2] (setting [4]) was below 100 nM throughout.
On to `CCN1CC(=O)Nc2cc(Nc3ncc(Cl)c(Nc4c(F)cccc4C(=O)NC)n3)ccc2C1` [Example 1863, 2-[5-Chloro-2-(4-ethyl-2-oxo-2,3,4,5-tetrahydro-1H-benzo[e][1,4]diazepin-8-ylamino)-pyrimidin-4-ylamino]-3-fluoro-N-methyl-benzamide], for which the IC50 is 100 to 1000 nM in assay [1] (setting [3]) and below 100 nM in assay [2] (setting [4]).
In the case of `CCNC(=O)c1cccc(F)c1Nc1nc(Nc2ccc3c(c2)CCN(CC(=O)N(C)C)CC3)ncc1Cl` [Example 1367, 2-[5-Chloro-2-(3-dimethylcarbamoylmethyl-2,3,4,5-tetrahydro-1H-benzo[d]azepin-7-ylamino)-pyrimidin-4-ylamino]-N-ethyl-3-fluoro-benzamide], the IC50 in assay [1] (setting [9]) and in assay [2] (setting [10]) was below 100 nM in each case.
As for `COCCN1CCc2ccc(Nc3ncc(Cl)c(N[C@@H]4CCCC[C@H]4N(CC#N)S(C)(=O)=O)n3)cc2CC1` [Example 1383, N-((1R,2R)-2-{5-Chloro-2-[3-(2-methoxy-ethyl)-2,3,4,5-tetrahydro-1H-benzo[d]azepin-7-ylamino]-pyrimidin-4-ylamino}-cyclohexyl)-N-cyanomethyl-methanesulfonamide], the IC50 in assay [1] (setting [9]) lay within 100 to 1000 nM; in assay [2] (setting [10]) it was 1000 to 10000 nM.
As to `COCCOC(=O)C1[C@@H]2C=C[C@@H](C2)[C@H]1Nc1nc(Nc2ccc3c(c2OC)CC[C@@H](N2CCOCC2)CC3)ncc1Cl` (single isomer, unassigned) [Example 904], the values for the IC50 in assay [1] (setting [7]) and in assay [2] (setting [8]) were 1000 to 10000 nM and above 10000 nM, respectively.
Take `COc1cc2c(cc1Nc1ncc(Cl)c(Nc3ccc(C(N)=O)cc3OC)n1)CCN(CCS(C)(=O)=O)CC2` [Example 1161, 4-{5-Chloro-2-[3-(2-methanesulfonyl-ethyl)-8-methoxy-2,3,4,5-tetrahydro-1H-benzo[d]azepin-7-ylamino]-pyrimidin-4-ylamino}-3-methoxy-benzamide]: the IC50 is below 100 nM in assay [1] (setting [9]) and above 10000 nM in assay [2] (setting [10]).
Taken in the same sequence, the figures for `CN(C)C(=O)CN1CCc2ccc(Nc3ncc(Cl)c(N[C@@H]4CCCC[C@H]4NS(C)(=O)=O)n3)cc2CC1` [Example 1371, 2-{7-[5-Chloro-4-((1R,2R)-2-methanesulfonylamino-cyclohexylamino)-pyrimidin-2-ylamino]-1,2,4,5-tetrahydro-benzo[d]azepin-3-yl}-N,N-dimethyl-acetamide] were below 100 nM and 100 to 1000 nM.
Turning to `CCNC(=O)c1ccccc1Nc1nc(Nc2ccc3c(c2)N(CC)CCN(CC)C3)ncc1Cl` [Example 718, 2-[5-Chloro-2-(1,4-diethyl-2,3,4,5-tetrahydro-1H-1,4-benzodiazepin-8-ylamino)-pyrimidin-4-ylamino]-N-ethyl-benzamide], the IC50 in assay [1] (setting [7]) and in assay [2] (setting [8]) was below 100 nM in each case.
Consider `COCCN1CCc2ccc(Nc3ncc(Cl)c(Nc4ccccc4S(=O)(=O)N4CCCC4)n3)cc2CC1` [Example 1730, 5-Chloro-N*2*-[3-(2-methoxy-ethyl)-2,3,4,5-tetrahydro-1H-benzo[d]azepin-7-yl]-N*4*-[2-(pyrrolidine-1-sulfonyl)-phenyl]-pyrimidine-2,4-diamine], for which the IC50 in assay [1] (setting [3]) and in assay [2] (setting [4]) was below 100 nM throughout.
Take `COc1cc2c(cc1Nc1ncc(Cl)c(Nc3cc(C(N)=O)ccc3OC)n1)CCN(CCS(C)(=O)=O)CC2` [Example 1137, 3-{5-Chloro-2-[3-(2-methanesulfonyl-ethyl)-8-methoxy-2,3,4,5-tetrahydro-1H-benzo[d]azepin-7-ylamino]-pyrimidin-4-ylamino}-4-methoxy-benzamide]: the figures for the IC50 in assay [1] (setting [9]) and in assay [2] (setting [10]) were 100 to 1000 nM and above 10000 nM, respectively.
With `CC1(C)CCC(=O)Nc2cc(Nc3ncc(Cl)c(Nc4c(F)cccc4OCC#N)n3)ccc21` [Example 930, {2-[5-Chloro-2-(5,5-dimethyl-2-oxo-2,3,4,5-tetrahydro-1H-1-benzazepin-8-ylamino)-pyrimidin-4-ylamino]-3-fluoro-phenoxy}-acetonitrile], the IC50 in assay [1] (setting [7]) and in assay [2] (setting [8]) was below 100 nM each time.
On to `CCN1C(=O)CCCc2c1ccc(Nc1ncc(Cl)c(N[C@H]3CCC[C@H]3C(=O)NC)n1)c2OC` (relative stereo) [Example 373, cis-2-[5-Chloro-2-(1-ethyl-6-methoxy-2-oxo-2,3,4,5-tetrahydro-1H-benzo[b]azepin-7-ylamino)-pyrimidin-4-ylamino]-cyclopentanecarboxylic acid methylamide], for which the IC50 in assay [1] (setting [5]) was below 100 nM; in assay [2] (setting [6]) it was above 10000 nM.
